pKi: −log10 of the molar value.

The first experiment deals with T1, human GAL2 receptor (Homo sapiens, UniProt O43603).
T1 construct: expressed in transfected cells
T1 sequence (O43603 1-387): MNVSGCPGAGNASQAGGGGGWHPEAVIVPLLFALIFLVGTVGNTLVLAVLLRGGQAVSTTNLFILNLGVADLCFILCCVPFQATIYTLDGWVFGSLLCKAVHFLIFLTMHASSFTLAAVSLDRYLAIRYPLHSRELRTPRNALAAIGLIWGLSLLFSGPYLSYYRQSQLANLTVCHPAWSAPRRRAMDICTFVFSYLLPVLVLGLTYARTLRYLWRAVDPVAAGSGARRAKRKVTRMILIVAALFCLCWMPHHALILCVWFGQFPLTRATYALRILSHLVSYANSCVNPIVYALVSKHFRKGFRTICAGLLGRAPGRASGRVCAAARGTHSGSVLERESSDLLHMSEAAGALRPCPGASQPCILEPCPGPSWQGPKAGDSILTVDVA
In words: Radioligand binding at cloned human GAL2 receptor. As to conditions: pyrimidines, read-out: Ki GalR2. The gist of the method:
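Membranes from CHO cells stably expressing human GAL2 and LM(tk-) cells stably expressing human GAL1, resuspended in binding buffer (10 mM NaCl, 20 mM HEPES, pH 7.4). Binding data fitted by nonlinear regression.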
`Cc1ccc(Nc2cc(N3CCCCC3)nc(N3CCN(c4ncccc4C(F)(F)F)CC3)n2)cc1` [Example 34]: the pKi was 6.77.
On the same count and under the same terms, under `Cc1ccc(Nc2cc(N3CCCCC3)nc(N(C)CCc3ccccc3)n2)cc1` [Example 22] stands 6.75; under `Cc1ccc(Nc2cc(N3CCCCC3)nc(N(C)CCc3c[nH]c4ccccc34)n2)cc1` [Example 11], 6.17; under `CN(CCc1c[nH]c2ccccc12)c1nc(Nc2ccc(F)c(F)c2)cc(N2CCCCC2)n1` [Example 15], 6.20.
On the same count and under the same terms, then `Cc1ccc(Nc2cc(N(C)C)nc(N(C)CCc3c[nH]c4ccccc34)n2)cc1` [Example 77], with 6.15.

The experiment is the same for the next values; noted with them: read-out: Ki GalR2, pyrimidines.
Regarding `COC[C@@H]1[C@@H](c2ccccc2)OCCN1c1nc(Nc2ccc(C)cc2)cc(N2CCCCC2)n1` [Example 49], the pKi was 5.49.

The next experiment deals with T2, human 5HT1A receptor (Homo sapiens, UniProt P08908).
T2 construct: expressed in transfected cells; host or cells: COS-7 cells, transient (pCEXV-3 vector)
T2 sequence (P08908 1-422): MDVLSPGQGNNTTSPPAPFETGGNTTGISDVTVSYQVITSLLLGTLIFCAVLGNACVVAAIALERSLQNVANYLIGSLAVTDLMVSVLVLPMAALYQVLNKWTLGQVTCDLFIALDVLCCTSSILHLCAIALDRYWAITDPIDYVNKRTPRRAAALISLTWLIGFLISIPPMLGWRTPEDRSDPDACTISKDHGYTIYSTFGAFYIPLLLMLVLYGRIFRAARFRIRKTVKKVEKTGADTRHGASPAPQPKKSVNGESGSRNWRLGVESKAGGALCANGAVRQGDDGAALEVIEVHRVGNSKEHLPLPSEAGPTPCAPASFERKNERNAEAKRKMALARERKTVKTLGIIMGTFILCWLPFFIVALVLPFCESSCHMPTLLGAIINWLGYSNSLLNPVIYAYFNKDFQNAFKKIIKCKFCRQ
In words: Radioligand binding, 5-HT1A receptor (3H-8-OH-DPAT). The settings on record: Table 7; read-out: h5HT1A Ki. On the procedure:
5-HT1A Receptor: The cDNA corresponding to the 5-HT1A receptor open reading frames and variable non-coding 5'-and 3'-regions, was cloned into the eukaryotic expression vector pCEXV-3. These constructs were transfected transiently into COS-7 cells by the DEAE-dextran method (Cullen, 1987), and harvested after 72 hours. Radioligand binding assays were performed as described above for the 5-HT2A receptor, except that ^3H-8-OH-DPAT was used as the radioligand and nonspecific binding was determined by the addition of 10 µM mianserin.
(§1) Binding data were analyzed using nonlinear regression and statistical techniques available in the GraphPAD Prism package (San Diego, CA). Enzymatic assay data were derived from a standard curve of reference compound data.
`Cc1ccc(Nc2cc(N3CCCCC3)nc(N(C)CCc3ccccc3)n2)cc1` [Example 22]: the pKi was 5.01.
Consider `Cc1ccc(Nc2cc(N3CCCCC3)nc(N(C)CCc3c[nH]c4ccccc34)n2)cc1` [Example 11], for which the pKi is 5.33.
Consider `CN(CCc1c[nH]c2ccccc12)c1nc(Nc2ccc(F)c(F)c2)cc(N2CCCCC2)n1` [Example 15], for which the pKi was 5.29.
As for `Cc1ccc(Nc2cc(N(C)C)nc(N(C)CCc3c[nH]c4ccccc34)n2)cc1` [Example 77], the pKi is 5.26.

Staying with this experiment, now noted: Table 8; Ki h5HT1A divided by Ki hGAL3.
In the case of `Cc1ccc(Nc2cc(N3CCCCC3)nc(N3CCN(c4ncccc4C(F)(F)F)CC3)n2)cc1` [Example 34], the “selectivity ratio h5HT1A” value was above 100.
Same read-out and setting: then `COC[C@@H]1[C@@H](c2ccccc2)OCCN1c1nc(Nc2ccc(C)cc2)cc(N2CCCCC2)n1` [Example 49], with above 100; and `Cc1ccc(Nc2cc(N3CCCCC3)nc(N(C)CCc3ccccc3)n2)cc1` [Example 22], with above 100.
Take `Cc1ccc(Nc2cc(N3CCCCC3)nc(N(C)CCc3c[nH]c4ccccc34)n2)cc1` [Example 11]: the “selectivity ratio h5HT1A” value is above 30.
In the case of `CN(CCc1c[nH]c2ccccc12)c1nc(Nc2ccc(F)c(F)c2)cc(N2CCCCC2)n1` [Example 15], the “selectivity ratio h5HT1A” value is given as above 30.
On to `Cc1ccc(Nc2cc(N(C)C)nc(N(C)CCc3c[nH]c4ccccc34)n2)cc1` [Example 77], for which the “selectivity ratio h5HT1A” value was above 30.
Still for that read-out and setting: then `O=C1C(=Nc2cccc(C(F)(F)F)c2)c2ccccc2N1c1ccccc1` [Example 92, 1-PHENYL-3- [[3-(TRIFLUOROMETHYL)PHENYL]IMINO]-1,3-DIHYDRO-2H-INDOL-2-ONE], with above 100.

Still in this experiment, the particulars now being: read-out: h5HT1A Ki; Table 7.
As for `COC[C@@H]1[C@@H](c2ccccc2)OCCN1c1nc(Nc2ccc(C)cc2)cc(N2CCCCC2)n1` [Example 49], the pKi is 4.53.

For the next experiment, the target named is T3, human dopamine D4 (Homo sapiens, UniProt P21917).
T3 construct: purchased BioSignal, Inc. (Montreal, Canada)
T3 sequence (P21917 1-419): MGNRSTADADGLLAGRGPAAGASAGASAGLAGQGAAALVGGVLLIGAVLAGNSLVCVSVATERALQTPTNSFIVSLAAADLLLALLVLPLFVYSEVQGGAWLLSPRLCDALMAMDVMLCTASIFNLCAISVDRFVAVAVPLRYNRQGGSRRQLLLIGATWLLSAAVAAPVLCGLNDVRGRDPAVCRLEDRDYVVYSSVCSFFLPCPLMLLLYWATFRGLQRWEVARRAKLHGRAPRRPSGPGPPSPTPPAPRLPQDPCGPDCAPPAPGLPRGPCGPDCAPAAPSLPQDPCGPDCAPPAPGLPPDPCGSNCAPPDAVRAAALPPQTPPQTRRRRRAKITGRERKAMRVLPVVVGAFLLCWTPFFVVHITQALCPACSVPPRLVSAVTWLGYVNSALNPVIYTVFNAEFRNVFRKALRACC
In words: Radioligand binding, dopamine D4 receptor. The settings on record: Table 9; read-out: hD4 Ki.
Source text: Other receptors: Cell membranes expressing human dopamine D1, D2, D4 and rat D3 receptors were purchased through BioSignal, Inc. (Montreal, Canada). Binding assays using the histamine H1 receptor; dopamine receptors; and α1A, α1E, and α2 adrenergic receptors may be carried out according to the procedures described in U.S. Patent No. 5,780,485, the disclosure of which is hereby incorporated by reference in its entirety into this application. Binding assays using the dopamine D5 receptor may be carried out according to the procedures described in U.S. Patent No. 5,882,855, the disclosure of which is hereby incorporated by reference in its entirety into this application. Binding assays for the human α1D adrenergic receptor may be carried out according to the procedures described in U.S. Patent No. 6,156,518, the disclosure of which is hereby incorporated by reference in its entirety into this application.
as §1
For the compound `Cc1ccc(Nc2cc(N3CCCCC3)nc(N3CCN(c4ncccc4C(F)(F)F)CC3)n2)cc1` [Example 34], the pKi was 4.73.
On the same count and under the same terms, then `Cc1ccc(Nc2cc(N3CCCCC3)nc(N(C)CCc3ccccc3)n2)cc1` [Example 22], with 4.93; and `Cc1ccc(Nc2cc(N3CCCCC3)nc(N(C)CCc3c[nH]c4ccccc34)n2)cc1` [Example 11], with 5.32; and `CN(CCc1c[nH]c2ccccc12)c1nc(Nc2ccc(F)c(F)c2)cc(N2CCCCC2)n1` [Example 15], with 4.88.
Still for that read-out and setting: then `Cc1ccc(Nc2cc(N(C)C)nc(N(C)CCc3c[nH]c4ccccc34)n2)cc1` [Example 77], with 6.30.

The same experiment, now with this note: Table 10; Ki hD4 divided by Ki hGAL3.
Turning to `Cc1ccc(Nc2cc(N3CCCCC3)nc(N3CCN(c4ncccc4C(F)(F)F)CC3)n2)cc1` [Example 34], the “selectivity ratio hD4” value was above 100.
Turning to `COC[C@@H]1[C@@H](c2ccccc2)OCCN1c1nc(Nc2ccc(C)cc2)cc(N2CCCCC2)n1` [Example 49], the “selectivity ratio hD4” value is above 100.
Take `Cc1ccc(Nc2cc(N3CCCCC3)nc(N(C)CCc3ccccc3)n2)cc1` [Example 22]: the “selectivity ratio hD4” value is given as above 100.
Still for that read-out and setting: under `Cc1ccc(Nc2cc(N3CCCCC3)nc(N(C)CCc3c[nH]c4ccccc34)n2)cc1` [Example 11] stands above 30; under `CN(CCc1c[nH]c2ccccc12)c1nc(Nc2ccc(F)c(F)c2)cc(N2CCCCC2)n1` [Example 15], above 30.
On to `Cc1ccc(Nc2cc(N(C)C)nc(N(C)CCc3c[nH]c4ccccc34)n2)cc1` [Example 77], for which the “selectivity ratio hD4” value turned out to be 6.
Consider `O=C1C(=Nc2cccc(C(F)(F)F)c2)c2ccccc2N1c1ccccc1` [Example 92, 1-PHENYL-3- [[3-(TRIFLUOROMETHYL)PHENYL]IMINO]-1,3-DIHYDRO-2H-INDOL-2-ONE], for which the “selectivity ratio hD4” value was above 100.

Still in this experiment, the particulars now being: read-out: hD4 Ki; Table 9.
Turning to `COC[C@@H]1[C@@H](c2ccccc2)OCCN1c1nc(Nc2ccc(C)cc2)cc(N2CCCCC2)n1` [Example 49], the pKi is 4.34.
